# Source: BindingDB's records for doi:10.1016/j.bmcl.2003.11.012 (Novo Nordisk, 2003)
# Biological target: Growth hormone secretagogue receptor type 1 (Homo sapiens, UniProt Q92847)
# Test: ChEBML_72507
# Description: Inhibition of ghrelin binding to Growth hormone secretagogue receptor expressed in BHK cells
# Growth hormone secretagogue receptor type 1, sequence (Q92847 whole entry): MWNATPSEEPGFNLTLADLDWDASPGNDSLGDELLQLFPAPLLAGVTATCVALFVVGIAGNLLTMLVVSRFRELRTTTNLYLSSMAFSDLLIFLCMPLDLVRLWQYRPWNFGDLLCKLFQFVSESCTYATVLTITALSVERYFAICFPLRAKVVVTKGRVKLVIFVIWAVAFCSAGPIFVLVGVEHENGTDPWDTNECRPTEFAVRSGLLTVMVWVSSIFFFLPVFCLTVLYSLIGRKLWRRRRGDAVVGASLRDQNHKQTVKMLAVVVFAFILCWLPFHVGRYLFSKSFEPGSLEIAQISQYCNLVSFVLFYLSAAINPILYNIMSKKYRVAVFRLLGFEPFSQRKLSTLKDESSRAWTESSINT
row,SMILES,IC50
1,"CN(C)C(=O)CCn1c(O)c(CCc2ccccc2)n(Cc2ccc(-c3ccccc3-c3nnn[nH]3)cc2)c1=O [3-{(S)-2,5-Dioxo-4-phenethyl-3-[2'-(2H-tetrazol-5-yl)-biphenyl-4-ylmethyl]-imidazolidin-1-yl}-N,N-dimethyl-propionamide]",> 100 µM
2,"NCCCn1c(O)c(CCc2ccccc2)n(Cc2ccc(-c3ccccc3-c3nnn[nH]3)cc2)c1=O [(S)-3-(3-Amino-propyl)-5-phenethyl-1-[2'-(2H-tetrazol-5-yl)-biphenyl-4-ylmethyl]-imidazolidine-2,4-dione]",> 100 µM
3,CN(C)c1ccc(-n2c(O)c(CCc3ccccc3)n(Cc3ccc(-c4ccccc4-c4nnn[nH]4)cc3)c2=S)cc1 [(S)-3-(4-Dimethylamino-phenyl)-5-phenethyl-1-[2'-(2H-tetrazol-5-yl)-biphenyl-4-ylmethyl]-2-thioxo-imidazolidin-4-one],> 100 µM

# Stronger by IC50, values ahead:
row,IC50,SMILES
1,35 µM,CN(C)CCCn1c(O)c(-c2ccccc2)n(Cc2ccc(-c3ccccc3-c3nnn[nH]3)cc2)c1=S [(S)-3-(3-Dimethylamino-propyl)-5-phenyl-1-[2'-(2H-tetrazol-5-yl)-biphenyl-4-ylmethyl]-2-thioxo-imidazolidin-4-one]
2,35 µM,CN(C)CCCn1c(O)c(Cc2ccccc2)n(Cc2ccc(-c3ccccc3-c3nnn[nH]3)cc2)c1=S [(S)-5-Benzyl-3-(3-dimethylamino-propyl)-1-[2'-(2H-tetrazol-5-yl)-biphenyl-4-ylmethyl]-2-thioxo-imidazolidin-4-one]
